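Each compound was tested at five concentrations against cells in 96-well plates for 48 hours. Here, GI50 denotes the concentration required for 50% inhibition of growth. TGI: total growth inhibition.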
What was measured:
Assay in all cases: NCI anticancer screen, dose series, 48 h
SNB-19 CNS = tested on: SNB-19 CNS
SN12C renal = tested on: SN12C renal
RXF 393 renal = tested on: RXF 393 renal
SF-295 CNS = tested on: SF-295 CNS
T-47D breast = tested on: T-47D breast
MCF7 breast = tested on: MCF7 breast
OVCAR-4 ovarian = tested on: OVCAR-4 ovarian
A498 renal = tested on: A498 renal
RPMI-8226 leukemia = tested on: RPMI-8226 leukemia
SK-OV-3 ovarian = tested on: SK-OV-3 ovarian
MOLT-4 leukemia = tested on: MOLT-4 leukemia
HCT-15 colon = tested on: HCT-15 colon
NCI-H522 lung = tested on: NCI-H522 lung
A549 NSCLC = tested on: A549 NSCLC
M14 melanoma = tested on: M14 melanoma
BT-549 breast = tested on: BT-549 breast
COLO 205 colon = tested on: COLO 205 colon
HOP-62 NSCLC = tested on: HOP-62 NSCLC
OVCAR-8 ovarian = tested on: OVCAR-8 ovarian
SF-539 CNS = tested on: SF-539 CNS
SK-MEL-5 melanoma = tested on: SK-MEL-5 melanoma
UACC-257 melanoma = tested on: UACC-257 melanoma
UO-31 renal = tested on: UO-31 renal
KM12 colon = tested on: KM12 colon
CAKI-1 renal = tested on: CAKI-1 renal
K-562 leukemia = tested on: K-562 leukemia
NCI-H460 lung = tested on: NCI-H460 lung
NCI/ADR-RES ovarian = tested on: NCI/ADR-RES ovarian
SNB-75 CNS = tested on: SNB-75 CNS
SW-620 colon = tested on: SW-620 colon
SK-MEL-28 melanoma = tested on: SK-MEL-28 melanoma
CCRF-CEM leukemia = tested on: CCRF-CEM leukemia
SK-MEL-2 melanoma = tested on: SK-MEL-2 melanoma
HCT-116 colon = tested on: HCT-116 colon
NCI-H226 lung = tested on: NCI-H226 lung
OVCAR-5 ovarian = tested on: OVCAR-5 ovarian
OVCAR-3 ovarian = tested on: OVCAR-3 ovarian
786-0 renal = tested on: 786-0 renal
HOP-92 NSCLC = tested on: HOP-92 NSCLC
LOX IMVI melanoma = tested on: LOX IMVI melanoma
PC-3 prostate = tested on: PC-3 prostate
ACHN renal = tested on: ACHN renal
MDA-MB-435 = tested on: MDA-MB-435
UACC-62 melanoma = tested on: UACC-62 melanoma
HS 578T breast = tested on: HS 578T breast
SR leukemia = tested on: SR leukemia
HT29 colon = tested on: HT29 colon
SF-268 CNS = tested on: SF-268 CNS
DU-145 prostate = tested on: DU-145 prostate
NCI-H23 lung = tested on: NCI-H23 lung
TK-10 renal = tested on: TK-10 renal
MDA-MB-231 breast = tested on: MDA-MB-231 breast
HCC-2998 colon = tested on: HCC-2998 colon
HL-60(TB) leukemia = tested on: HL-60(TB) leukemia
U251 CNS = tested on: U251 CNS
IGROV1 ovarian = tested on: IGROV1 ovarian
MALME-3M melanoma = tested on: MALME-3M melanoma

Work on `COc1cccc(-n2cc(-c3nc(Nc4cc(C)[nH]n4)c4ccccc4n3)nn2)c1` yielded a GI50 (SNB-19 CNS) of 6.61 µM, a TGI (SNB-19 CNS) of 15.7 µM and a GI50 (SN12C renal) of 3.04 µM. It also gave a TGI (SN12C renal) of 12.4 µM, a GI50 (RXF 393 renal) of 1.45 µM and a TGI (RXF 393 renal) of 8.92 µM. For the same compound, the GI50 (SF-295 CNS) was 2.88 µM, the TGI (SF-295 CNS) was 11 µM and the GI50 (T-47D breast) was 2 µM. For the same compound, the TGI (T-47D breast) was 9.61 µM, the GI50 (MCF7 breast) was 4.76 µM and the TGI (MCF7 breast) was 14 µM. For the same compound, the GI50 (OVCAR-4 ovarian) was 2.24 µM, the TGI (OVCAR-4 ovarian) was 9.57 µM and the GI50 (A498 renal) was 0.291 µM. The TGI (A498 renal) was 7.08 µM, the GI50 (RPMI-8226 leukemia) was 3.57 µM and the TGI (RPMI-8226 leukemia) was 13.8 µM. For the same compound, the GI50 (SK-OV-3 ovarian) was 2.34 µM, the TGI (SK-OV-3 ovarian) was 10.8 µM and the GI50 (MOLT-4 leukemia) was 2.01 µM. For the same compound, the TGI (MOLT-4 leukemia) was 9.8 µM, the GI50 (HCT-15 colon) was 0.228 µM and the TGI (HCT-15 colon) was 9.23 µM. For the same compound, the GI50 (NCI-H522 lung) was 3.38 µM, the TGI (NCI-H522 lung) was 10.2 µM and the GI50 (A549 NSCLC) was 2.33 µM. It also gave a TGI (A549 NSCLC) of 11.4 µM, a GI50 (M14 melanoma) of 1.1 µM and a TGI (M14 melanoma) of 9.51 µM. The GI50 (BT-549 breast) was 7.04 µM, the TGI (BT-549 breast) was 13.5 µM and the GI50 (COLO 205 colon) was 6.8 µM. For the same compound, the TGI (COLO 205 colon) was 15.9 µM, the GI50 (HOP-62 NSCLC) was 1.64 µM and the TGI (HOP-62 NSCLC) was 8.4 µM. For the same compound, the GI50 (OVCAR-8 ovarian) was 2.88 µM, the TGI (OVCAR-8 ovarian) was 11.7 µM and the GI50 (SF-539 CNS) was 4.25 µM. It also gave a TGI (SF-539 CNS) of 11.1 µM, a GI50 (SK-MEL-5 melanoma) of 1.07 µM and a TGI (SK-MEL-5 melanoma) of 4.06 µM. For the same compound, the GI50 (UACC-257 melanoma) was 7.75 µM, the TGI (UACC-257 melanoma) was 15 µM and the GI50 (UO-31 renal) was 0.187 µM. It also gave a TGI (UO-31 renal) of 5.39 µM, a GI50 (KM12 colon) of 1.69 µM and a TGI (KM12 colon) of 7.39 µM. For the same compound, the GI50 (CAKI-1 renal) was 0.165 µM, the TGI (CAKI-1 renal) was 5.62 µM and the GI50 (K-562 leukemia) was 2.59 µM. For the same compound, the TGI (K-562 leukemia) was 14.7 µM, the GI50 (NCI-H460 lung) was 2.65 µM and the TGI (NCI-H460 lung) was 11.3 µM. The GI50 (NCI/ADR-RES ovarian) was 0.234 µM, the TGI (NCI/ADR-RES ovarian) was 12.5 µM and the GI50 (SNB-75 CNS) was 1.15 µM. It also gave a TGI (SNB-75 CNS) of 7.9 µM, a GI50 (SW-620 colon) of 5.22 µM and a TGI (SW-620 colon) of 14.9 µM. For the same compound, the GI50 (SK-MEL-28 melanoma) was 6.05 µM, the TGI (SK-MEL-28 melanoma) was 13.9 µM and the GI50 (CCRF-CEM leukemia) was 2.82 µM. The TGI (CCRF-CEM leukemia) was 16.8 µM, the GI50 (SK-MEL-2 melanoma) was 1.71 µM and the TGI (SK-MEL-2 melanoma) was 9.27 µM. It also gave a GI50 (HCT-116 colon) of 2.1 µM, a TGI (HCT-116 colon) of 10.5 µM and a GI50 (NCI-H226 lung) of 4.02 µM. The TGI (NCI-H226 lung) was 10.6 µM, the GI50 (OVCAR-5 ovarian) was 3.51 µM and the TGI (OVCAR-5 ovarian) was 12 µM. It also gave a GI50 (OVCAR-3 ovarian) of 5.71 µM, a TGI (OVCAR-3 ovarian) of 12.6 µM and a GI50 (786-0 renal) of 2.89 µM. For the same compound, the TGI (786-0 renal) was 9.85 µM, the GI50 (HOP-92 NSCLC) was 1.67 µM and the TGI (HOP-92 NSCLC) was 9.53 µM. For the same compound, the GI50 (LOX IMVI melanoma) was 5.15 µM, the TGI (LOX IMVI melanoma) was 12.3 µM and the GI50 (PC-3 prostate) was 3.48 µM. The TGI (PC-3 prostate) was 11.9 µM, the GI50 (ACHN renal) was 0.261 µM and the TGI (ACHN renal) was 7.04 µM. The GI50 (MDA-MB-435) was 2.24 µM, the TGI (MDA-MB-435) was 9.18 µM and the GI50 (UACC-62 melanoma) was 2.86 µM. For the same compound, the TGI (UACC-62 melanoma) was 11.3 µM, the GI50 (HS 578T breast) was 2.6 µM and the TGI (HS 578T breast) was 16.5 µM. The GI50 (SR leukemia) was 2.03 µM, the TGI (SR leukemia) was 13.5 µM and the GI50 (HT29 colon) was 7.05 µM. It also gave a TGI (HT29 colon) of 14.5 µM, a GI50 (SF-268 CNS) of 5.39 µM and a TGI (SF-268 CNS) of 13.8 µM. The GI50 (DU-145 prostate) was 5.51 µM, the TGI (DU-145 prostate) was 11.7 µM and the GI50 (NCI-H23 lung) was 6.28 µM. It also gave a TGI (NCI-H23 lung) of 22.4 µM, a GI50 (TK-10 renal) of 0.438 µM and a TGI (TK-10 renal) of 8.42 µM. It also gave a GI50 (MDA-MB-231 breast) of 3.02 µM, a TGI (MDA-MB-231 breast) of 15.6 µM and a GI50 (HCC-2998 colon) of 5.86 µM. It also gave a TGI (HCC-2998 colon) of 13.3 µM, a GI50 (HL-60(TB) leukemia) of 2.85 µM and a TGI (HL-60(TB) leukemia) of 14.5 µM. The GI50 (U251 CNS) was 1.87 µM, the TGI (U251 CNS) was 9.32 µM and the GI50 (IGROV1 ovarian) was 1.69 µM. It also gave a TGI (IGROV1 ovarian) of 10.1 µM, a GI50 (MALME-3M melanoma) of 5.31 µM and a TGI (MALME-3M melanoma) of 13.7 µM.

Reference: PubChem BioAssay (NCI)
